Data as given in ChEMBL document CHEMBL4610120, “New Broad-Spectrum Antibiotics Containing a Pyrrolobenzodiazepine Ring with Activity against Multidrug-Resistant Gram-Negative Bacteria” (J Med Chem, 2020).
≈ marks a conversion by molar mass, not a printed value.

Key:
Klebsiella pneumoniae [1] = assay: Ratio of MIC for multidrug-resistant Klebsiella pneumoniae NCTC 13368 to MIC for multidrug-resistant Klebsiella pneumoniae NCTC 13368 in presence of efflux pump inhibitor PAbetaN; assay type: functional
Acinetobacter baumannii [2] = assay: Antimicrobial activity against Acinetobacter baumannii ATCC 17978 by microdilution broth method; assay type: functional
Acinetobacter baumannii [3] = assay: Antimicrobial activity against multidrug-resistant Acinetobacter baumannii AYE by microdilution broth method; assay type: functional
Pseudomonas aeruginosa [4] = assay: Antimicrobial activity against Pseudomonas aeruginosa PAO1 by microdilution broth method; assay type: functional
Enterococcus faecium = assay: Antibacterial activity against vancomycin resistant Enterococcus faecium NCTC 12204 by microdilution broth method; assay type: functional
Enterococcus faecalis = assay: Antibacterial activity against vancomycin resistant Enterococcus faecalis NCTC 12201 by microdilution broth method; assay type: functional
Staphylococcus aureus = assay: Antibacterial activity against methicillin resistant Staphylococcus aureus NCTC 13277 by microdilution broth method; assay type: functional
Klebsiella pneumoniae [5] = assay: Antimicrobial activity against multidrug-resistant Klebsiella pneumoniae M6 by microdilution broth method; assay type: functional
Klebsiella pneumoniae [6] = assay: Antimicrobial activity against multidrug-resistant Klebsiella pneumoniae 46704 by microdilution broth method; assay type: functional
Klebsiella pneumoniae [7] = assay: Antimicrobial activity against multidrug-resistant Klebsiella pneumoniae 51851 by microdilution broth method; assay type: functional
Escherichia coli [8] = assay: Antimicrobial activity against multidrug-resistant Escherichia coli CFI_017_VIM4 by microdilution broth method; assay type: functional
Escherichia coli [9] = assay: Antimicrobial activity against multidrug-resistant Escherichia coli CFI_160_KPC2 by microdilution broth method; assay type: functional
Escherichia coli [10] = assay: Antimicrobial activity against multidrug-resistant Escherichia coli LEC001 by microdilution broth method; assay type: functional
Burkholderia multivorans = assay: Antimicrobial activity against multidrug-resistant Burkholderia multivorans C1962 by microdilution broth method; assay type: functional
[11] = Antimicrobial activity against multidrug-resistant Burkholderia cepacia complex CEP509 by microdilution broth method; assay type: functional
[12] = Antimicrobial activity against multidrug-resistant Burkholderia cepacia complex NCTC 17765 by microdilution broth method; assay type: functional
[13] = Antimicrobial activity against multidrug-resistant Burkholderia cepacia complex LMG 17997 by microdilution broth method; assay type: functional
Klebsiella pneumoniae [14] = assay: Antibacterial activity against multidrug-resistant Klebsiella pneumoniae NCTC 13368 measured after 10 passages by microdilution broth method; assay type: functional
Klebsiella pneumoniae [15] = assay: Antimicrobial activity against multidrug-resistant Klebsiella pneumoniae NCTC 13368 in presence of efflux pump inhibitor CCCP by microdilution broth method; assay type: functional
Klebsiella pneumoniae [16] = assay: Antimicrobial activity against multidrug-resistant Klebsiella pneumoniae 16 in presence of efflux pump inhibitor CCCP by microdilution broth method; assay type: functional
Acinetobacter baumannii [17] = assay: Antimicrobial activity against multidrug-resistant Acinetobacter baumannii NCTC 13424 in presence of efflux pump inhibitor CCCP by microdilution broth method; assay type: functional
Pseudomonas aeruginosa [18] = assay: Antimicrobial activity against Pseudomonas aeruginosa PAO1 in presence of efflux pump inhibitor CCCP by microdilution broth method; assay type: functional
Klebsiella pneumoniae [19] = assay: Antimicrobial activity against multidrug-resistant Klebsiella pneumoniae NCTC 13368 in presence of efflux pump inhibitor PAbetaN by microdilution broth method; assay type: functional
Acinetobacter baumannii [20] = assay: Antimicrobial activity against Acinetobacter baumannii ATCC 17978 in presence of efflux pump inhibitor PAbetaN by microdilution broth method; assay type: functional
Pseudomonas aeruginosa [21] = assay: Antimicrobial activity against Pseudomonas aeruginosa PAO1 in presence of membrane permeabilizer PMBN by microdilution broth method; assay type: functional
Pseudomonas aeruginosa [22] = assay: Ratio of MIC for multidrug-resistant Pseudomonas aeruginosa NCTC 13437 to MIC for multidrug-resistant Pseudomonas aeruginosa NCTC 13437 in presence of membrane permeabilizer PMBN; assay type: functional
DNA [23] = assay: Stabilization of 5'-FAM-TAT-ATA-TAG-ATA-TTT-TTT-TAT-CTA-TAT-ATA-3'-TAMRA DNA (unknown origin) assessed as reduction in change in melting temperature at 1:1 to 5:1 ligand to DNA ratio measured after 3 hrs by FRET-based assay relative to control; assay type: ADME, nucleic-acid assay
DNA [24] = assay: Stabilization of 5'-FAM-TAT-AGA-TAT-AGA-TAT-TTT-ATA-TCT-ATA-TCT-ATA-3'-TAMRA DNA (unknown origin) assessed as reduction in change in melting temperature at 1:1 to 5:1 ligand to DNA ratio measured after 3 hrs by FRET-based assay relative to control; assay type: ADME, nucleic-acid assay
[25] = Selectivity ratio of cytotoxicity against human WI38 cells to MIC for multidrug-resistant Acinetobacter baumannii AYE; assay type: toxicity, cell-based
[26] = Selectivity ratio of cytotoxicity against human WI38 cells to MIC for Klebsiella pneumoniae M6; assay type: toxicity, cell-based
[27] = Selectivity ratio of cytotoxicity against human WI38 cells to MIC for multidrug-resistant Klebsiella pneumoniae NCTC 13368; assay type: toxicity, cell-based
[28] = Selectivity ratio of cytotoxicity against human WI38 cells to MIC for vancomycin resistant Enterococcus faecium NCTC 12204; assay type: toxicity, cell-based
[29] = Selectivity ratio of cytotoxicity against human WI38 cells to MIC for vancomycin resistant Enterococcus faecalis NCTC 12201; assay type: toxicity, cell-based
[30] = Selectivity ratio of cytotoxicity against human WI38 cells to MIC for vancomycin sensitive Enterococcus faecalis NCTC 775; assay type: toxicity, cell-based
[31] = Selectivity ratio of cytotoxicity against human WI38 cells to MIC for methicillin resistant Staphylococcus aureus NCTC 13277; assay type: toxicity, cell-based
DNA gyrase = DNA gyrase (Escherichia coli, UniProt P0AES6+P0AES4); assay: Inhibition of Escherichia coli DNA gyrase using relaxed pNO1 as substrate by gel based fluorescence assay; assay type: protein-complex assay
[32] = target: T1, Cell division inhibitor SulA (Escherichia coli K-12) (UniProt P0AFZ5); assay: Induction of Escherichia coli K12 MG1655 sulA promotor measured at 30 mins interval for 20 hrs by fluorescence assay relative to control; conditions: Escherichia coli str. K-12 substr. MG1655
T1 sequence (whole entry): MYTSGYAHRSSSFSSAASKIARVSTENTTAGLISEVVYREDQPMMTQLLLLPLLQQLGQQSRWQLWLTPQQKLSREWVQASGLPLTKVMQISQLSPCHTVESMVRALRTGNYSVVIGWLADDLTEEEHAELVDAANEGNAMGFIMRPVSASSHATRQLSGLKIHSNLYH

Klebsiella pneumoniae [33] = assay: Antimicrobial activity against Klebsiella pneumoniae M137K by microdilution broth method; assay type: functional

SMILES	Ratio (Klebsiella pneumoniae [1])	MIC (Acinetobacter baumannii [2]) [µg/mL]	MIC (Acinetobacter baumannii [3]) [µg/mL]	MIC (Pseudomonas aeruginosa [4]) [µg/mL]	MIC (Enterococcus faecium) [µg/mL]	MIC (Enterococcus faecalis) [µg/mL]	MIC (Staphylococcus aureus) [µg/mL]	MIC (Klebsiella pneumoniae [5]) [µg/mL]	MIC (Klebsiella pneumoniae [6]) [µg/mL]	MIC (Klebsiella pneumoniae [7]) [µg/mL]	MIC (Escherichia coli [8]) [µg/mL]	MIC (Escherichia coli [9]) [µg/mL]	MIC (Escherichia coli [10]) [µg/mL]	MIC (Burkholderia multivorans) [µg/mL]	MIC [11] [µg/mL]	MIC [12] [µg/mL]	MIC [13] [µg/mL]	MIC (Klebsiella pneumoniae [14]) [µg/mL]	MIC (Klebsiella pneumoniae [15]) [µg/mL]	MIC (Klebsiella pneumoniae [16]) [µg/mL]	further results
COc1cc2c(cc1OCCCC(=O)Nc1cc(C(=O)Nc3ccc4oc(C(=O)N5CCSCC5)cc4c3)n(C)c1)N=C[C@@H]1CCCN1C2=O	4	2 (≈ 2.86 µM)	2 to 4 (≈ 2.86 to 5.72 µM)	32 to 128 (≈ 45.8 to 183 µM)	0.03 (≈ 0.0429 µM)	0.25 (≈ 0.358 µM)	2 (≈ 2.86 µM)	1 (≈ 1.43 µM)	4 (≈ 5.72 µM)	4 (≈ 5.72 µM)	2 (≈ 2.86 µM)	4 (≈ 5.72 µM)	2 (≈ 2.86 µM)	> 32	8 (≈ 11.4 µM)	1 (≈ 1.43 µM)	0.25 (≈ 0.358 µM)	≥ 128	> 32	0.12 to 1	MIC (Acinetobacter baumannii [17]): 1 µg/mL; MIC (Pseudomonas aeruginosa [18]): > 32 µg/mL; MIC (Klebsiella pneumoniae [19]): 8 µg/mL; MIC (Acinetobacter baumannii [20]): 2 µg/mL; MIC (Pseudomonas aeruginosa [21]): 0.25 to 8 µg/mL; Ratio (Pseudomonas aeruginosa [22]): >=8 - 64; fold change (FC) (DNA [23]): 3 to 4; fold change (FC) (DNA [24]): 3 to 4; selectivity ratio [25]: 10; selectivity ratio [26]: 10; selectivity ratio [27]: 10; selectivity ratio [28]: 100; selectivity ratio [29]: 100; selectivity ratio [30]: 100; selectivity ratio [31]: 100; IC50 (DNA gyrase): Nd(Insoluble); fold change (FC) [32]: 6 to 7; MIC (Klebsiella pneumoniae [33]): 32 µg/mL (≈ 45.8 µM)
COc1cc2c(cc1OCCCC(=O)Nc1cc(C(=O)Nc3ccc4sc(C(=O)N(C)C)cc4c3)n(C)c1)N=C[C@@H]1CCCN1C2=O	4	0.5 to 1 (≈ 0.761 to 1.52 µM)	0.5 to 1 (≈ 0.761 to 1.52 µM)	> 32	0.03 (≈ 0.0457 µM)	0.03 (≈ 0.0457 µM)	0.06 (≈ 0.0914 µM)	1 (≈ 1.52 µM)	1 (≈ 1.52 µM)	2 (≈ 3.05 µM)	1 (≈ 1.52 µM)	0.5 (≈ 0.761 µM)	1 (≈ 1.52 µM)	2 (≈ 3.05 µM)	2 (≈ 3.05 µM)	0.125 (≈ 0.19 µM)	0.125 (≈ 0.19 µM)	> 32	2	0.06 to 0.5	MIC (Acinetobacter baumannii [17]): 0.25 µg/mL; MIC (Pseudomonas aeruginosa [18]): > 32 µg/mL; MIC (Klebsiella pneumoniae [19]): 0.5 µg/mL; MIC (Acinetobacter baumannii [20]): 0.25 µg/mL; MIC (Pseudomonas aeruginosa [21]): 2 to 16 µg/mL; Ratio (Pseudomonas aeruginosa [22]): 32 - 1000; fold change (FC) (DNA [23]): 3 to 4; fold change (FC) (DNA [24]): 3 to 4; selectivity ratio [25]: 10; selectivity ratio [26]: 10; selectivity ratio [27]: 10; selectivity ratio [28]: 100; selectivity ratio [29]: 100; selectivity ratio [30]: 100; selectivity ratio [31]: 100; IC50 (DNA gyrase): Nd(Insoluble); fold change (FC) [32]: 6 to 7; MIC (Klebsiella pneumoniae [33]): 16 to 32 µg/mL (≈ 24.4 to 48.7 µM)
